# Values of other authors in patent publication US8758826B2, “Cannabinoid receptor binding agents, compositions, and methods” (Wet Inc., priority 2011, dated 2014).
# Columns and labels:
# CB2 = CB2 (Homo sapiens, UniProt P34972); conditions: higher for CB2 than CB1
# [1] = test system: rats with a partial urethral obstruction
# histamine-induced itch = conditions: topically applied
# keratinocyte = conditions: in vitro and in situ
# CB2, sequence (P34972 whole entry, species assumed): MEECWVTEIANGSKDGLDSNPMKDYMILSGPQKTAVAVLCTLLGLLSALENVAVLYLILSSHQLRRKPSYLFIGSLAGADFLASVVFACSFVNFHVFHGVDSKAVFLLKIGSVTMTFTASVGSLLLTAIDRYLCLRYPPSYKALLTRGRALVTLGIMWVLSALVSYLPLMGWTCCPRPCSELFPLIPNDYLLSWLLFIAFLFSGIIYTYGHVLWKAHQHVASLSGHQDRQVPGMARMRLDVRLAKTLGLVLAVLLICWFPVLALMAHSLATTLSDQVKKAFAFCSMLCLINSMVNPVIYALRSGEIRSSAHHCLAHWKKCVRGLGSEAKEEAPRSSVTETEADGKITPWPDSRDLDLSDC
smiles,measurement,setting,value
CCCCCc1cc(O)c2c(c1)OC(C)(C)c1ccc(C)cc1-2 [Cannabinol],Binding affinity to CB2 than to CB1,CB2,10 fold
CCCCCCC(C)(C)c1cc(O)c([C@H]2CC(=O)[C@H]3C[C@@H]2C3(C)C)c(OC(=O)/C=C/C(=O)O)c1 [Cannabinor],Bladder emptying,[1],improves bladder emptying
CCCCCCC(C)(C)c1cc(O)c2c(c1)OC(C)(C)[C@@H]1CC=C(CO)C[C@@H]21 [HU-210],Histamine-induced itch,histamine-induced itch,capable of reducing histamine-induced itch
Cc1c(C(=O)NN2CCCCC2)nn(-c2ccc(Cl)cc2Cl)c1-c1ccc(Cl)cc1 [SR141716],Sperm motility,human sperm,enhance sperm motility
"CCCCCc1cc(O)c2c(c1)OC(C)(C)[C@@H]1CCC(C)=C[C@@H]21 [THC, Δ9-tetrahydrocannabinol]",Action at CB1,CB1,agonist
same,Melanin content of the hair follicle,hair follicle,significantly and dose-dependently suppressed
same,Hair shaft elongation,human hair follicle,dose-dependently inhibited
same,Intraepithelial apoptosis and premature HF regression (catagen),human hair follicle,induced
same,Proliferation of hair matrix keratinocytes,human hair follicle,dose-dependently inhibited
"CCCCC/C=C\C/C=C\C/C=C\C/C=C\CCCC(=O)NCCO [anandamide, N-arachidonoylethanolamide]",Cell death,keratinocyte,induces cell death
same,Keratinocyte proliferation,keratinocyte,markedly suppresses
same,Hair shaft elongation,human hair follicle,dose-dependently inhibited
same,Intraepithelial apoptosis and premature HF regression (catagen),human hair follicle,induced
same,Proliferation of hair matrix keratinocytes,human hair follicle,dose-dependently inhibited
COc1cc(/C=C/C(=O)CC(=O)/C=C/c2ccc(O)c(OC)c2)ccc1O [curcumin],Apoptosis in melanoma cells,melanoma cells,induce apoptosis
same,Proliferation of melanoma cells,melanoma cells,suppress proliferation
